Results taken from the NIST ThermoML archive (doi:10.1016/j.jct.2015.08.031).
Numbers after ± are expanded uncertainties.

Test: molar heat capacity at constant pressure
Details: 101.33 kPa, Crystal, relaxation calorimetry

[Al+3].[Al+3].[O-2].[O-2].[O-2] [aluminum oxide (Al2O3)]
Details | molar heat capacity at constant pressure [J/K/mol]
1.93 K | 7.666e-05 ± 6.6e-06
2.15 K | 9.655e-05 ± 7.9e-06
2.39 K | 0.0001341 ± 1e-05
2.65 K | 0.0001785 ± 1.3e-05
2.95 K | 0.0002464 ± 1.8e-05
3.28 K | 0.0003342 ± 2.4e-05
3.64 K | 0.0004613 ± 3.3e-05
4.04 K | 0.0006149 ± 4.4e-05
4.49 K | 0.0008379 ± 5.9e-05
4.98 K | 0.001136 ± 8e-05
5.523 K | 0.001541 ± 0.00011
6.13 K | 0.00216 ± 0.00015
6.8 K | 0.002926 ± 0.00021
7.54 K | 0.004006 ± 0.00028
8.36 K | 0.005388 ± 0.00038
9.27 K | 0.007325 ± 0.00051
10.28 K | 0.009979 ± 0.0007
11.37 K | 0.0134 ± 0.00094
12.61 K | 0.01843 ± 0.0013
13.99 K | 0.02532 ± 0.0018
15.52 K | 0.03431 ± 0.0024
17.22 K | 0.04685 ± 0.0033
19.12 K | 0.06451 ± 0.0045
21.23 K | 0.08864 ± 0.0036
23.58 K | 0.1229 ± 0.005
26.17 K | 0.1719 ± 0.007
29.08 K | 0.2396 ± 0.0097
32.22 K | 0.3344 ± 0.014
35.73 K | 0.4743 ± 0.019
39.62 K | 0.6761 ± 0.027
43.94 K | 0.9644 ± 0.039
48.73 K | 1.379 ± 0.056
54.06 K | 1.968 ± 0.08
59.98 K | 2.789 ± 0.11
66.54 K | 3.91 ± 0.16
73.85 K | 5.425 ± 0.22
81.95 K | 7.444 ± 0.3
90.93 K | 9.991 ± 0.41
100.91 K | 13.15 ± 0.53
111.18 K | 16.79 ± 0.68
121.13 K | 20.54 ± 0.83
131.17 K | 24.48 ± 0.99
141.28 K | 28.54 ± 1.2
151.4 K | 32.54 ± 1.3
161.47 K | 36.62 ± 1.5
171.56 K | 40.51 ± 1.6
181.6 K | 44.37 ± 1.8
191.67 K | 48.13 ± 2
201.78 K | 51.63 ± 2.1
211.87 K | 55.13 ± 2.2
221.94 K | 58.53 ± 2.4
232 K | 61.73 ± 2.5
241.98 K | 64.63 ± 2.6
252.05 K | 67.6 ± 2.7
262.17 K | 70.28 ± 2.9
272.22 K | 72.77 ± 3
282.18 K | 75.28 ± 3.1
292.31 K | 77.45 ± 3.1
297.27 K | 78.3 ± 3.2
302.27 K | 79.34 ± 3.2
302.29 K | 79.63 ± 3.2
307.31 K | 80.41 ± 3.3
312.34 K | 81.4 ± 3.3
317.3 K | 82.41 ± 3.3
322.32 K | 83.31 ± 3.4
327.42 K | 84.26 ± 3.4
332.46 K | 85.09 ± 3.5
337.41 K | 85.84 ± 3.5
342.44 K | 86.73 ± 3.5
347.58 K | 87.72 ± 3.6
352.67 K | 88.65 ± 3.6
357.7 K | 89.47 ± 3.6
362.73 K | 90.24 ± 3.7
367.75 K | 90.97 ± 3.7
372.77 K | 91.84 ± 3.7
377.77 K | 92.8 ± 3.8
382.79 K | 93.27 ± 3.8
387.76 K | 94.14 ± 3.8
392.76 K | 95.04 ± 3.9
397.77 K | 95.81 ± 3.9

O=C(O)c1ccccc1 [benzoic acid]
Details | molar heat capacity at constant pressure [J/K/mol]
1.93 K | 0.01333 ± 0.0011
2.15 K | 0.01845 ± 0.0015
2.39 K | 0.0255 ± 0.0019
2.66 K | 0.03397 ± 0.0025
2.96 K | 0.04707 ± 0.0034
3.29 K | 0.06572 ± 0.0047
3.65 K | 0.08963 ± 0.0064
4.05 K | 0.1233 ± 0.0088
4.49 K | 0.1714 ± 0.012
4.99 K | 0.2363 ± 0.017
5.54 K | 0.3302 ± 0.023
6.14 K | 0.4631 ± 0.033
6.81 K | 0.6487 ± 0.046
7.56 K | 0.9052 ± 0.064
8.38 K | 1.253 ± 0.088
9.29 K | 1.714 ± 0.12
10.26 K | 2.266 ± 0.16
11.36 K | 3.021 ± 0.21
12.61 K | 3.971 ± 0.28
13.99 K | 5.144 ± 0.36
15.52 K | 6.537 ± 0.46
17.23 K | 8.219 ± 0.57
19.12 K | 10.17 ± 0.71
21.21 K | 12.39 ± 0.5
23.54 K | 14.97 ± 0.61
26.1 K | 17.79 ± 0.72
28.96 K | 20.88 ± 0.85
32.16 K | 24.14 ± 0.98
35.67 K | 27.61 ± 1.1
39.58 K | 31.21 ± 1.3
43.9 K | 34.8 ± 1.4
48.73 K | 38.39 ± 1.6
54.07 K | 42.02 ± 1.7
60 K | 45.71 ± 1.9
66.57 K | 49.33 ± 2
73.89 K | 52.81 ± 2.1
82 K | 56.69 ± 2.3
91.01 K | 60.28 ± 2.4
100.97 K | 63.46 ± 2.6
111.11 K | 67.66 ± 2.7
121.2 K | 71.28 ± 2.9
131.23 K | 75.08 ± 3
141.33 K | 78.93 ± 3.2
151.47 K | 82.66 ± 3.4
161.56 K | 86.28 ± 3.5
171.65 K | 90.21 ± 3.7
181.75 K | 94.38 ± 3.8
191.83 K | 98.14 ± 4
201.92 K | 101.91 ± 4.1
212.02 K | 106.35 ± 4.3
222.12 K | 110.99 ± 4.5
232.21 K | 115.4 ± 4.7
242.21 K | 119.97 ± 4.9
252.4 K | 124.67 ± 5.1
262.46 K | 128.8 ± 5.2
272.51 K | 133.51 ± 5.4
282.55 K | 138.2 ± 5.6
292.7 K | 141.62 ± 5.8
302.71 K | 144.34 ± 5.9

[Cu] [copper]
Details | molar heat capacity at constant pressure [J/K/mol]
1.93 K | 0.001713 ± 0.00012
2.15 K | 0.002021 ± 0.00014
2.39 K | 0.002319 ± 0.00017
2.65 K | 0.002809 ± 0.0002
2.95 K | 0.003326 ± 0.00024
3.28 K | 0.003967 ± 0.00028
3.64 K | 0.004911 ± 0.00035
4.04 K | 0.005973 ± 0.00042
4.48 K | 0.007493 ± 0.00053
4.97 K | 0.009444 ± 0.00066
5.51 K | 0.01204 ± 0.00085
6.11 K | 0.01543 ± 0.0011
6.78 K | 0.0199 ± 0.0014
7.52 K | 0.02598 ± 0.0018
8.33 K | 0.03421 ± 0.0024
9.24 K | 0.04517 ± 0.0032
10.25 K | 0.06013 ± 0.0042
11.34 K | 0.08043 ± 0.0056
12.58 K | 0.1091 ± 0.0076
13.96 K | 0.149 ± 0.01
15.48 K | 0.2052 ± 0.014
17.18 K | 0.2844 ± 0.02
19.06 K | 0.3981 ± 0.028
21.16 K | 0.5588 ± 0.023
23.49 K | 0.7857 ± 0.032
26.06 K | 1.094 ± 0.044
28.95 K | 1.514 ± 0.062
32.07 K | 2.062 ± 0.084
35.61 K | 2.768 ± 0.11
39.52 K | 3.635 ± 0.15
43.85 K | 4.662 ± 0.19
48.66 K | 5.846 ± 0.24
54.01 K | 7.178 ± 0.29
59.94 K | 8.631 ± 0.35
66.51 K | 10.16 ± 0.41
73.83 K | 11.68 ± 0.47
81.93 K | 13.27 ± 0.54
90.94 K | 14.71 ± 0.6
100.89 K | 16.04 ± 0.65
111.02 K | 17.3 ± 0.7
121.12 K | 18.35 ± 0.74
131.2 K | 19.24 ± 0.78
141.26 K | 19.93 ± 0.81
151.41 K | 20.52 ± 0.83
161.51 K | 21.05 ± 0.85
171.6 K | 21.5 ± 0.87
181.69 K | 21.94 ± 0.89
191.78 K | 22.25 ± 0.9
201.87 K | 22.55 ± 0.92
212 K | 22.82 ± 0.93
222.11 K | 23.11 ± 0.94
232.19 K | 23.37 ± 0.95
242.21 K | 23.57 ± 0.96
252.34 K | 23.79 ± 0.97
262.41 K | 23.94 ± 0.97
272.42 K | 24.1 ± 0.98
282.6 K | 24.3 ± 0.99
292.63 K | 24.41 ± 0.99
297.94 K | 24.49 ± 0.99
302.69 K | 24.51 ± 1
302.72 K | 24.54 ± 1
307.82 K | 24.55 ± 1
312.89 K | 24.59 ± 1
317.83 K | 24.7 ± 1
322.91 K | 24.68 ± 1
328.03 K | 24.79 ± 1
333.05 K | 24.87 ± 1
338.06 K | 24.81 ± 1
343.13 K | 24.9 ± 1
348.29 K | 25.01 ± 1
353.34 K | 25.13 ± 1
358.42 K | 25.09 ± 1
363.5 K | 25.13 ± 1
368.53 K | 25.23 ± 1
373.56 K | 25.3 ± 1
378.59 K | 25.4 ± 1
383.61 K | 25.45 ± 1
388.61 K | 25.48 ± 1
393.64 K | 25.58 ± 1
398.65 K | 25.68 ± 1
